Data from US8618153B2, “Hepatitis C virus inhibitors” (Bristol-Myers Squibb Company, priority 2009, dated 2013).
Read-outs that look alike come from different tables or passages of the source.

System: HCV 1b genotype
Assay: HCV Replicon assay (HCV-neo replicon cells), 1b genotype
Format: cell-based
Conditions: Hepatitis C virus, HCV 1b genotype replicon, read-out: 1b EC50 (in μM or range)
Experimental: An HCV Replicon assay was utilized in the present disclosure, and was prepared, conducted and validated as described in commonly owned PCT/US2006/022197 and in O'Boyle et al., Antimicrob. Agents Chemother., 49(4):1346-1353 (April 2005). Assay methods incorporating luciferase reporters have also been used as described (Apath.com).
HCV-neo replicon cells and replicon cells containing mutations in the NS5A region were used to test the currently described family of compounds. The compounds were determined to have more than 10-fold less inhibitory activity on cells containing mutations than wild-type cells. Thus, the compounds of the present disclosure can be effective in inhibiting the function of the HCV NS5A protein and are understood to be as effective in combinations as previously described in application PCT/US2006/022197 and commonly owned WO 04/014852. Further, the compounds of the present disclosure can be effective against the HCV 1b genotype. It should also be understood that the compounds of the present disclosure can inhibit multiple genotypes of HCV. […] In one embodiment compounds of the present disclosure are inhibitory versus 1a, 1b, 2a, 2b, 3a, 4a, and 5a genotypes. […] The compounds of the present disclosure may inhibit HCV by mechanisms in addition to or other than NS5A inhibition. In one embodiment the compounds of the present disclosure inhibit HCV replicon and in another embodiment the compounds of the present disclosure inhibit NS5A.

Row | SMILES | EC50 (value given as range class) [nM] | EC50 (numeric value) [nM]
1 | COC(=O)N[C@@H](C)C(=O)N1CCC[C@H]1c1ncc(-c2ccc(-c3ccc(-c4cnc([C@@H]5CCCN5C(=O)[C@H](C)NC(=O)OC)[nH]4)s3)s2)[nH]1 [Example 1, Methyl ((1S)-2-((2S)-2-(4-(5′-(2-((2S)-1-(N-(methoxycarbonyl)-L-alanyl)-2-pyrrolidinyl)-1H-imidazol-4-yl)-2,2′-bithiophen-5-yl)-1H-imidazol-2-yl)-1-pyrrolidinyl)-1-methyl-2-oxoethyl)carbamate] | < 1 | 
2 | COCC[C@H](NC(=O)OC)C(=O)N1CCC[C@H]1c1ncc(-c2ccc(-c3ccc(-c4cnc([C@@H]5CCCN5C(=O)[C@H](CCOC)NC(=O)OC)[nH]4)s3)s2)[nH]1 [Example 2, Methyl ((1S)-3-methoxy-1-(((2S)-2-(4-(5′-(2-((2S)-1-(N-(methoxycarbonyl)-O-methyl-L-homoseryl)-2-pyrrolidinyl)-1H-imidazol-4-yl)-2,2′-bithiophen-5-yl)-1H-imidazol-2-yl)-1-pyrrolidinyl)carbonyl)propyl)carbamate] | < 1 | 
3 | COC(=O)N[C@@H](C(=O)N1CCC[C@H]1c1ncc(-c2ccc(-c3ccc(-c4cnc([C@@H]5CCCN5C(=O)[C@H](NC(=O)OC)C(C)C)[nH]4)s3)s2)[nH]1)C(C)C [Example 3, Methyl ((1R)-1-(((2S)-2-(4-(5′-(2-((2S)-1-((2R)-2-((methoxycarbonyl)amino)-3-methylbutanoyl)-2-pyrrolidinyl)-1H-imidazol-4-yl)-2,2′-bithiophen-5-yl)-1H-imidazol-2-yl)-1-pyrrolidinyl)carbonyl)-2-methylpropyl)carbamate] | 10 to 10000 | 
4 | COC(=O)N[C@@H](C(=O)N1CCC[C@H]1c1ncc(-c2ccc(-c3ccc(-c4cnc([C@@H]5CCCN5C(=O)[C@H](NC(=O)OC)c5ccccc5)[nH]4)s3)s2)[nH]1)c1ccccc1 [Example 4, Dimethyl (2,2′-bithiene-5,5′-diylbis(1H-imidazole-4,2-diyl(2S)-2,1-pyrrolidinediyl((1R)-2-oxo-1-phenyl-2,1-ethanediyl)))biscarbamate] | < 1 | 
5 | CN(C)[C@@H](C(=O)N1CCC[C@H]1c1ncc(-c2ccc(-c3ccc(-c4cnc([C@@H]5CCCN5C(=O)[C@@H](c5ccccc5)N(C)C)[nH]4)s3)s2)[nH]1)c1ccccc1 [Example 5, (1R′,1′R)-2,2′-(2,2′-Bithiene-5,5′-diylbis(1H-imidazole-4,2-diyl(2S)-2,1-pyrrolidinediyl))bis(N,N-dimethyl-2-oxo-1-phenylethanamine)] | < 1 | 
6 | COC(=O)N[C@H](C(=O)N1CCC[C@H]1c1ncc(-c2ccc(-c3ccc(-c4cnc([C@@H]5CCCN5C(=O)[C@@H](NC(=O)OC)C(C)C)[nH]4)s3)s2)[nH]1)C(C)C [Example 6, Methyl ((1S)-1-(((2S)-2-(4-(5′-(2-((2S)-1-((2S)-2-((methoxycarbonyl)amino)-3-methylbutanoyl)-2-pyrrolidinyl)-1H-imidazol-4-yl)-2,2′-bithiophen-5-yl)-1H-imidazol-2-yl)-1-pyrrolidinyl)carbonyl)-2-methylpropyl)carbamate] |  | 0.003
7 | COC(=O)N[C@H](C(=O)N1CCC[C@H]1c1ncc(-c2ccc(-c3ccc(-c4cnc([C@@H]5CCCN5C(=O)[C@@H](NC(=O)OC)C5CC5)[nH]4)s3)s2)[nH]1)C1CC1 [Example 7, Dimethyl (2,2′-bithiene-5,5′-diylbis(1H-imidazole-4,2-diyl(2S)-2,1-pyrrolidinediyl((1S)-1-cyclopropyl-2-oxo-2,1-ethanediyl)))biscarbamate] | < 1 | 
8 | CN(C)[C@@H](C(=O)N1CCC[C@H]1c1ncc(-c2ncc(-c3cnc(-c4cnc([C@@H]5CCCN5C(=O)[C@@H](c5ccccc5)N(C)C)[nH]4)s3)s2)[nH]1)c1ccccc1 [Example 8, (1R,1′R)-2,2′-(5,5′-Bi-1,3-thiazole-2,2′-diylbis(1H-imidazole-4,2-diyl(2S)-2,1-pyrrolidinediyl))bis(N,N-dimethyl-2-oxo-1-phenylethanamine)] | < 1 | 
9 | COC(=O)N[C@@H](C(=O)N1CCC[C@H]1c1ncc(-c2ncc(-c3cnc(-c4cnc([C@@H]5CCCN5C(=O)[C@H](NC(=O)OC)c5ccccc5)[nH]4)s3)s2)[nH]1)c1ccccc1 [Example 9, Dimethyl (5,5′-bi-1,3-thiazole-2,2′-diylbis(1H-imidazole-4,2-diyl(2S)-2,1-pyrrolidinediyl((1R)-2-oxo-1-phenyl-2,1-ethanediyl)))biscarbamate] | < 1 | 
10 | COC(=O)N[C@H](C(=O)N1CCC[C@H]1c1ncc(-c2ncc(-c3cnc(-c4cnc([C@@H]5CCCN5C(=O)[C@@H](NC(=O)OC)C(C)C)[nH]4)s3)s2)[nH]1)C(C)C [Example 10, Methyl ((1S)-1-(((2S)-2-(4-(2′-(2-((2S)-1-((2S)-2-((methoxycarbonyl)amino)-3-methylbutanoyl)-2-pyrrolidinyl)-1H-imidazol-4-yl)-5,5′-bi-1,3-thiazol-2-yl)-1H-imidazol-2-yl)-1-pyrrolidinyl)carbonyl)-2-methylpropyl)carbamate] | 1 to 10 | 
11 | COC(=O)N[C@@H](C(=O)N1CCC[C@H]1c1ncc(-c2ncc(-c3cnc(-c4cnc([C@@H]5CCCN5C(=O)[C@H](NC(=O)OC)C(C)C)[nH]4)s3)s2)[nH]1)C(C)C [Example 11, Methyl ((1R)-1-(((2S)-2-(4-(2′-(2-((2S)-1-((2R)-2-((methoxycarbonyl)amino)-3-methylbutanoyl)-2-pyrrolidinyl)-1H-imidazol-4-yl)-5,5′-bi-1,3-thiazol-2-yl)-1H-imidazol-2-yl)-1-pyrrolidinyl)carbonyl)-2-methylpropyl)carbamate] |  | 5860
12 | COC(=O)N[C@H](C(=O)N1CCC[C@H]1c1ncc(-c2ncc(-c3cnc(-c4cnc([C@@H]5CCCN5C(=O)[C@@H](NC(=O)OC)[C@@H](C)OC)[nH]4)s3)s2)[nH]1)[C@@H](C)OC [Example 12, Methyl ((1S,2R)-2-methoxy-1-(((2S)-2-(4-(2′-(2-((2S)-1-(N-(methoxycarbonyl)-O-methyl-L-threonyl)-2-pyrrolidinyl)-1H-imidazol-4-yl)-5,5′-bi-1,3-thiazol-2-yl)-1H-imidazol-2-yl)-1-pyrrolidinyl)carbonyl)propyl)carbamate] | 10 to 10000 | 
13 | COCC[C@H](NC(=O)OC)C(=O)N1CCC[C@H]1c1ncc(-c2ncc(-c3cnc(-c4cnc([C@@H]5CCCN5C(=O)[C@H](CCOC)NC(=O)OC)[nH]4)s3)s2)[nH]1 [Example 13, Methyl ((1S)-3-methoxy-1-(((2S)-2-(4-(2′-(2-((2S)-1-(N-(methoxycarbonyl)-O-methyl-L-homoseryl)-2-pyrrolidinyl)-1H-imidazol-4-yl)-5,5′-bi-1,3-thiazol-2-yl)-1H-imidazol-2-yl)-1-pyrrolidinyl)carbonyl)propyl)carbamate] | 10 to 10000 | 
14 | COC(=O)N[C@H](C(=O)N1CCC[C@H]1c1ncc(-c2cnc(-c3ncc(-c4cnc([C@@H]5CCCN5C(=O)[C@@H](NC(=O)OC)C(C)C)[nH]4)s3)s2)[nH]1)C(C)C [Example 14, Methyl ((1S)-1-(((2S)-2-(4-(5′-(2-((2S)-1-((2S)-2-((methoxycarbonyl)amino)-3-methylbutanoyl)-2-pyrrolidinyl)-1H-imidazol-4-yl)-2,2′-bi-1,3-thiazol-5-yl)-1H-imidazol-2-yl)-1-pyrrolidinyl)carbonyl)-2-methylpropyl)carbamate] | < 1 | 
15 | COCC[C@H](NC(=O)OC)C(=O)N1CCC[C@H]1c1ncc(-c2cnc(-c3ncc(-c4cnc([C@@H]5CCCN5C(=O)[C@H](CCOC)NC(=O)OC)[nH]4)s3)s2)[nH]1 [Example 15, Methyl ((1S)-3-methoxy-1-(((2S)-2-(4-(5′-(2-((2S)-1-(N-(methoxycarbonyl)-O-methyl-L-homoseryl)-2-pyrrolidinyl)-1H-imidazol-4-yl)-2,2′-bi-1,3-thiazol-5-yl)-1H-imidazol-2-yl)-1-pyrrolidinyl)carbonyl)propyl)carbamate] |  | 2.38
16 | COC(=O)N[C@@H](C(=O)N1CCC[C@H]1c1ncc(-c2cnc(-c3ncc(-c4cnc([C@@H]5CCCN5C(=O)[C@H](NC(=O)OC)c5ccccc5)[nH]4)s3)s2)[nH]1)c1ccccc1 [Example 16, Dimethyl (2,2′-bi-1,3-thiazole-5,5′-diylbis(1H-imidazole-4,2-diyl(2S)-2,1-pyrrolidinediyl((1R)-2-oxo-1-phenyl-2,1-ethanediyl)))biscarbamate] | < 1 | 
17 | CN(C)[C@@H](C(=O)N1CCC[C@H]1c1ncc(-c2cnc(-c3ncc(-c4cnc([C@@H]5CCCN5C(=O)[C@@H](c5ccccc5)N(C)C)[nH]4)s3)s2)[nH]1)c1ccccc1 [Example 17, (1R,1′R)-2,2′-(2,2′-Bi-1,3-thiazole-5,5′-diylbis(1H-imidazole-4,2-diyl(2S)-2,1-pyrrolidinediyl))bis(N,N-dimethyl-2-oxo-1-phenylethanamine)] | < 1 | 
18 | COC(=O)N[C@@H](C(=O)N1CCC[C@H]1c1ncc(-c2cnc(-c3ncc(-c4cnc([C@@H]5CCCN5C(=O)[C@H](NC(=O)OC)C(C)C)[nH]4)s3)s2)[nH]1)C(C)C [Example 18] | 10 to 10000 | 
